According to the supplement of paper PMC10307832:

Columns and labels:
Assay in all cases: relative viability (nuclei count vs DMSO), 5 days (fraction); higher = more cells survive
[1] = compound: CN1CCC(CNc2ccc3ncc(-c4cccc(OC(F)(F)F)c4)n3n2)CC1 [SGI-1776] + COc1cccc2cc(-c3nc([C@H]4CC[C@H](C(=O)O)CC4)n4ncnc(N)c34)[nH]c12 [OSI-027] (partner 0.5 µM)
How it was run: (§1)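 One day after seeding in 1536-well plates, lung cancer cell lines were dosed by pin tool. Dosing was either single-drug or a fixed anchor-drug dose plus five library-drug doses (not always all listed) in √10 steps. After 5 days, nuclei were stained in one fix-and-stain step and counted on 4× images, and relative viability is the nuclei count of treated wells over that of vehicle wells, given as the median of duplicate plates.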

[2] = compound: C1COCCN1C2=NC(=NC3=C2OC4=C3C=CC=N4)C5=CC(=CC=C5)NC(=O)C6=CN=C(C=C6)N + Cc1nc(NC(=O)N2CCC[C@H]2C(N)=O)sc1-c1ccnc(C(C)(C)C(F)(F)F)c1 [Alpelisib] (partner 2 µM)
How it was run: as §1

[3] = compound: CN1CCC(CNc2ccc3ncc(-c4cccc(OC(F)(F)F)c4)n3n2)CC1 [SGI-1776] + Nc1nc2[nH]cc(CCc3ccc(C(=O)N[C@@H](CCC(=O)O)C(=O)O)cc3)c2c(=O)[nH]1 [Pemetrexed] (partner 0.2 µM)
How it was run: as §1

[4] = compound: C1COCCN1C2=NC(=NC3=C2OC4=C3C=CC=N4)C5=CC(=CC=C5)NC(=O)C6=CN=C(C=C6)N + Cc1nc(Nc2ncc(C(=O)Nc3c(C)cccc3Cl)s2)cc(N2CCN(CCO)CC2)n1 [Dasatinib] (partner 0.075 µM)
How it was run: as §1

| Cell Line | relative viability ([1]; first compound 0.08 µM) | relative viability ([1]; first compound 0.8 µM) | relative viability ([1]; first compound 2.53 µM) | relative viability ([1]; first compound 8 µM) | relative viability ([2]; first compound 0.02 µM) | relative viability ([2]; first compound 0.06325 µM) | relative viability ([2]; first compound 0.2 µM) | relative viability ([2]; first compound 0.6325 µM) | relative viability ([2]; first compound 2 µM) | relative viability ([3]; first compound 0.08 µM) | relative viability ([3]; first compound 0.8 µM) | relative viability ([3]; first compound 2.53 µM) | relative viability ([3]; first compound 8 µM) | relative viability ([4]; first compound 0.02 µM) | relative viability ([4]; first compound 0.06325 µM) | relative viability ([4]; first compound 0.2 µM) | relative viability ([4]; first compound 0.6325 µM) | relative viability ([4]; first compound 2 µM) |
| --- | --- | --- | --- | --- | --- | --- | --- | --- | --- | --- | --- | --- | --- | --- | --- | --- | --- | --- |
| NCI-H1734 | 0.686 | 0.645 | 0.615 | 0.403 | 0.722 | 0.684 | 0.616 | 0.688 | 0.598 | 0.412 | 0.371 | 0.399 | 0.377 | 0.502 | 0.544 | 0.436 | 0.397 | 0.262 |
| NCI-H441 | 0.58 | 0.559 | 0.743 | 0.388 | 0.832 | 0.93 | 0.751 | 0.715 | 0.433 | 0.276 | 0.258 | 0.299 | 0.26 | 0.685 | 0.783 | 0.609 | 0.486 | 0.415 |
| NCI-H23 | 0.676 | 0.547 | 0.724 | 0.437 | 0.661 | 0.822 | 0.66 | 0.772 | 0.491 | 0.763 | 0.799 | 0.659 | 0.569 | 0.82 |  | 0.582 | 0.724 | 0.482 |
| NCI-H1395 | 0.78 | 0.582 | 0.627 | 0.448 | 1.03 | 1.03 | 0.998 | 1.45 | 0.89 | 0.876 | 0.836 | 0.784 | 0.605 | 0.388 | 0.359 | 0.394 | 0.353 | 0.369 |
| NCI-H596 | 0.809 | 0.761 | 0.682 | 0.467 | 0.497 | 0.51 | 0.691 | 0.51 | 0.394 | 0.442 | 0.51 | 0.505 | 0.461 | 0.607 | 0.621 | 0.545 | 0.739 | 0.5 |
| NCI-H460 | 0.68 | 0.587 | 0.646 | 0.255 | 0.393 | 0.5 | 0.395 | 0.349 | 0.0947 | 0.0693 | 0.062 | 0.0616 | 0.0609 | 0.521 | 0.361 | 0.417 | 0.414 | 0.185 |
